Data published in the NIST ThermoML archive (doi:10.1021/je060204g).

Settings: 101 kPa, Liquid mixture 1, Drop weight

Cc1ccccc1 [toluene] + O
Settings | interfacial tension [mN/m]
293.15 K | 37.1
298.15 K | 36.1
303.15 K | 35.5
308.15 K | 35.1
313.15 K | 34.7
323.15 K | 34.3
